Reference: patent publication US10889572B2, “Reactive oxygen species scavengers and use for treating diseases” (XW LABORATORIES INC., priority 2017, dated 2021)
Where a name gives a salt, the structure may show the parent alone.

system: HT-1080 (fibrosarcoma) cells; test: Primary screening by ferroptosis assay (Erastin-induced, cell viability, CellTiter-Glo); assay type: cell-based; details: HT-1080 cells, 30 hours, % remaining activity, read-out: EC50, Inhibition for Ferroptosis in HT-1080 Cell
Protocol: Cell Lines and Media: HT-1080 (fibrosarcoma) cells were obtained from American Type Culture Collection. Cells were grown in EMEM media, 10% Heat-Inactivated FBS, and penicillin-streptomycin mix (Invitrogen). Cells were maintained at 37° C. and 5% CO2 in a tissue culture incubator.
Cell Viability Assay: Seed 10,000 cell/well of HT-1080 cells with 195 μL growth media in black and clear bottom 96-well plates (Cat #Corning 3904) and allow cells to adhere overnight. The next day, dilute test compound by 2-fold dilution into 12 points with medium containing 400 μM Erastin. Transfer 5 μL of compounds solution into growth medium in triplicated wells. 30 hours later, add Cell Titer-Glo® Luminescent cell viability assay reagent (Cat #, Promega G8081) to measure HT-1080 cell viability according to the manufacture protocol. Briefly, aspirate 100 μL medium, and add 50 μL CellTiter-Glo® Luminescent reagent to each well and incubated for 30 minutes at room temperature to stabilize the Luminescent signal. Seal the plates and centrifuged for 1 minute at 1,000 rpm to remove bubbles. Shake the plates for 1 minute on an orbital shaker. Read the plate to detect Luminescent signal with EnSpire Multimode Plate Reader (PerkinElmer). The remaining activity % is used to evaluate Erastin induced ferroptosis in HT-1080 cells and expressed as the following formula: % Remaining Activity−100×[(Sample−Backgroundavg)/(Vehicle−Background avg)]
Sample: Readout from the test compound
Vehicle: Readout from the vehicle sample
Background: Readout from the Erastin only treatment
Dose response curve is graphed by using the non-linear regression analysis (formula equation 201) in XLFit (Excel add-in software) for the average % remaining activity from triplicates, and the EC50 values is then calculated. In this anti-ferroptosis assay, ferrostatin-1, and XJB-5-131 are included as reference. The acceptance criteria were set based on historical result, mean±2.58*SD in logarithmic scale, meanwhile Z′>0.5.

SMILES	EC50
CC(C)C[C@@H](/C=C/[C@H](Cc1ccccc1)C(=O)N1CCC[C@H]1C(=O)N[C@@H](CCCNC(=O)OC(C)(C)C)C(=O)NC1CC(C)(C)N([O])C(C)(C)C1)NC(=O)OC(C)(C)C [Example XX, tert-Butyl N-(4-{[(2S)-1-[(2R,3E,5S)-2-benzyl-5-{[(tert-butoxy)carbonyl]amino}-7-methyloct-3-enoyl]pyrrolidin-2-yl]formamido}-4-[(1-oxyl-2,2,6,6-tetramethylpiperidin-4-yl)carbamoyl]butyl)carbamate]	532 nM
CC(C)C[C@@H](/C=C/[C@H](Cc1ccccc1)C(=O)N1CCC[C@H]1C(=O)N[C@@H](CCCNC(=O)OC1CC(C)(C)N(O)C(C)(C)C1)C(=O)OC(C)C)NC(=O)OC(C)(C)C [Example XXX, Propan-2-yl (2S)—2-{[(2S)-1-[(2S,3E,5S)-2-benzyl-5-{[(tert-butoxy)carbonyl]amino}-7-methyloct-3-enoyl]pyrrolidin-2-yl]formamido}-5-({[(1-hydroxy-2,2,6,6-tetramethylpiperidin-4-yl)oxy]carbonyl}amino)pentanoate]	46 nM
CC(C)C[C@@H](/C=C/[C@H](Cc1ccccc1)C(=O)N1CCC[C@H]1C(=O)N[C@@H](CCCCNC(=O)OCc1ccccc1)C(=O)NC1CC(C)(C)N(O)C(C)(C)C1)NC(=O)OC(C)(C)C [Example XXVII, Benzyl N-[(5S)—5-{[(2S)-1-[(2S,3E,5S)-2-benzyl-5-{[(tertbutoxy)carbonyl]amino}-7-methyloct-3-enoyl]pyrrolidin-2-yl]formamido}-5-[(1-hydroxy-2,2,6,6-tetramethylpipe-ridin-4-yl)carbamoyl]pentyl]carbamate]	141 nM

same assay, conditions: Homo sapiens, HT-1080, 30 h, HT-1080 cells, % remaining activity, read-out: EC50, Inhibition for Ferroptosis in HT-1080 Cell

SMILES	EC50
CC(C)C[C@@H](/C=C/[C@H](Cc1ccccc1)C(=O)N1CCC[C@H]1C(=O)N[C@@H](Cc1ccc(O)cc1)C(=O)NC1CC(C)(C)N(O)C(C)(C)C1)NC(=O)OC(C)(C)C [Example XVI, tert-Butyl N-[(4S,5E,7S)-7-benzyl-8-[(2S)—2-{[(1S)-1-[(1-hydroxy-2,2,6,6-tetramethylpiperidin-4-yl)carbamoyl]-2-(4-hydroxyphenyl)ethyl]carbamoyl}pyrrolidin-1-yl]-2-methyl-8-oxooct-5-en-4-yl]carbamate]	536 nM
COC(=O)[C@H](CCCNC(=O)OC1CC(C)(C)N(O)C(C)(C)C1)NC(=O)[C@@H]1CCCN1C(=O)[C@H](/C=C/[C@H](CC(C)C)NC(=O)OC(C)(C)C)Cc1ccccc1 [Example XVIII]	86 nM
CC(C)C[C@@H](/C=C/[C@H](Cc1ccccc1)C(=O)N1CCCC1C(=O)N[C@@H](CCCCNC(=O)OC1CC(C)(C)N(O)C(C)(C)C1)C(=O)OC1CCCCC1)NC(=O)OC(C)(C)C (stereo in doubt) [Example XXXXVI, (S)—Cyclohexyl 2-((R)-1-((2S,5S,E)-2-benzyl-5-((tert-butoxycarbonyl)amino)-7-methyloct-3-enoyl)pyrrolidine-2-carboxamido)-6-((((1-hydroxy-2,2,6,6-tetramethylpiperidin-4-yl)oxy)carbonyl)amino)hexanoate]	66.3 nM
CCN(CC)C(=O)[C@H](CCCNC(=O)OC1CC(C)(C)N(O)C(C)(C)C1)NC(=O)[C@@H]1CCCN1C(=O)[C@H](/C=C/[C@H](CC(C)C)NC(=O)OC(C)(C)C)Cc1ccccc1 [Example XXXV, tert-Butyl N-[(4S,5E,7S)-7-benzyl-8-[(2S)—2-{[(1S)-1-(diethylcarbamoyl)-4-({[(1-oxyl-2,2,6,6-tetramethylpiperidin-4-yl)oxy]carbonyl}amino)-butyl]carbamoyl}pyrrolidin-1-yl]-2-methyl-8-oxooct-5-en-4-yl]carbamate]	192 nM
CC(C)C[C@H](N)/C=C/[C@H](Cc1ccccc1)C(=O)N1CCC[C@H]1C(=O)N[C@H](CCCNC(=O)OCc1ccccc1)C(=O)NC1CC(C)(C)N(O)C(C)(C)C1 [Example XIII, Benzyl N-[(4R)—4-{[(2S)-1-[(2S,3E,5S)-5-amino-2-benzyl-7-methyloct-3-enoyl]pyrrolidin-2-yl]formamido}-4-[(1-hydroxy-2,2,6,6-tetramethyl-piperidin-4-yl)carbamoyl]butyl]carbamate dihydrochloride]	262 nM
CC(C)C[C@@H](/C=C/[C@H](Cc1ccccc1)C(=O)N1CCC[C@H]1C(=O)N1CCC[C@H]1C(=O)N[C@@H](CCCNC(=O)OCc1ccccc1)C(=O)NC1CC(C)(C)N(O)C(C)(C)C1)NC(=O)OC(C)(C)C [Example XI, Benzyl N-[(4S)-4-1-{[(2S)-1-[(2S)-1-[(2R,3E,5S)-2-benzyl-5-{[(tert-butoxy)carbonyl]amino}-7-methyloct-3-enoyl]pyrrolidine-2-carbonyl]pyrrolidin-2-yl]formamido}-4-[(1-hydroxy-2,2,6,6-tetramethylpiperidin-4-yl)carbamoyl]butyl]carbamate]	526 nM
CC(C)C[C@@H](/C=C/[C@H](Cc1ccccc1)C(=O)N1CCC[C@H]1C(=O)N[C@@H](CCCNC(=O)OC1CC(C)(C)N(O)C(C)(C)C1)C(=O)NC1CC(C)(C)N(O)C(C)(C)C1)NC(=O)OC(C)(C)C [XXXXIII, 1-Hydroxy-2,2,6,6-tetramethylpiperidin-4-yl N-[(4S)—4-{[(2S)-1-[(2S,3E,5S)-2-benzyl-5-{[(tert-butoxy)carbonyl]amino}-7-methyloct-3-enoyl]pyrrolidin-2-yl]formamido}-4-[(1-hydroxy-2,2,6,6-tetramethylpiperidin-4-yl)carbamoyl]butyl]carbamate]	123 nM
Cc1cc(O)cc(C)c1CNC(=O)[C@H](CCCNC(=O)OCc1ccccc1)NC(=O)[C@@H]1CCCN1C(=O)[C@H](/C=C/[C@H](CC(C)C)NC(=O)OC(C)(C)C)Cc1ccccc1 [Example XXIV, Benzyl N-[(4S)—4-{[(2S)-1-[(2S,3E,5S)-2-benzyl-5-{ [(tert-butoxy)carbonyl]amino}-7-methyloct-3-enoyl]pyrrolidin-2-yl]formamido}-4-{[(4-hydroxy-2,6-dimethylphenyl)methyl]carbamoyl}butyl]carbamate]	> 4000 nM
CC(C)C[C@@H](/C=C/[C@H](Cc1ccccc1)C(=O)N1CCC[C@H]1C(=O)N[C@@H](CCCCNC(=O)OC1CC(C)(C)N(O)C(C)(C)C1)C(=O)NC(C)(C)C)NC(=O)OC(C)(C)C [Example XXXVI, tert-Butyl N-[(4S,5E,7S)-7-benzyl-8-[(2S)—2-{[(1S)-1-(tert-butylcarbamoyl)-5-({[(1-oxyl-2,2,6,6-tetramethylpiperidin-4-yl)oxy]carbonyl}amino)pentyl]-carbamoyl}pyrrolidin-1-yl]-2-methyl-8-oxooct-5-en-4-yl]carbamate]	142 nM
CC(C)C[C@@H](/C=C/[C@H](Cc1ccccc1)C(=O)N1CCC[C@H]1C(=O)N[C@H](C(=O)N[C@@H](CCCNC(=O)OCc1ccccc1)C(=O)NC1CC(C)(C)N(O)C(C)(C)C1)C(C)C)NC(=O)OC1CC(C)(C)N(O)C(C)(C)C1 [Example XXV, 1-Hydroxy-2,2,6,6-tetramethylpiperidin-4-yl N-[(4S,5E,7S)-7-benzyl-8-[(2S)—2-{[(1S)—1-{[(1S)—4-{[(benzyloxy)carbonyl]amino}-1-[(1-hydroxy-2,2,6,6-tetramethylpiperidin-4-yl)carbamoyl]butyl]carbamoyl}-2-methylpropyl]carbamoyl}pyrrolidin-1-yl]-2-methyl-8-oxooct-5-en-4-yl]carbamate dihydrochloride]	255 nM
CC(C)C[C@@H](/C=C/[C@H](Cc1ccccc1)C(=O)N1CCC[C@H]1C(=O)N[C@@H](CCCCNC(=O)C1CC(C)(C)N(O)C1(C)C)C(=O)OC(C)C)NC(=O)OC(C)(C)C (stereo partly drawn) [Example XXXII, Propan-2-yl (2S)—2-{[(2S)-1-[(2S,3E,5S)-2-benzyl-5-{[(tert-butoxy)carbonyl]amino}-7-methyloct-3-enoyl]pyrrolidin-2-yl]formamido}-6-[(1-oxyl-2,2,5,5-tetramethylpyrrolidin-3-yl)formamido]-hexanoate]	573 nM

same assay, conditions: Homo sapiens, HT-1080 cells, 30 hours, % remaining activity, read-out: EC50, Inhibition for Ferroptosis in HT-1080 Cell

SMILES	EC50
CC(C)C[C@@H](/C=C/[C@H](Cc1ccccc1)C(=O)N1CCC[C@H]1C(=O)N[C@H](C(=O)N[C@@H](CCCNC(=O)OC1CC(C)(C)N(O)C(C)(C)C1)C(=O)NC(C)C)C(C)C)NC(=O)OC(C)(C)C [Example XXXXVII, tert-Butyl N-[(4S,5E,7S)-7-benzyl-8-[(2S)—2-{[(1S)—1-{[(1S)-4-({[(1-oxyl-2,2,6,6-tetramethylpiperidin-4-yl)oxy]carbonyl}amino)-1-[(propan-2-yl)carbamoyl]butyl]carbamoyl}-2-methylpropyl]carbamoyl}pyrrolidin-1-yl]-2-methyl-8-oxooct-5-en-4-yl]carbamate]	143 nM
CC(C)C[C@@H](/C=C/[C@H](Cc1ccccc1)C(=O)N1CCC[C@@H]1C(=O)N[C@@H](CCCNC(=O)OC(C)(C)C)C(=O)NC1CC(C)(C)N(O)C(C)(C)C1)NC(=O)OC(C)(C)C [Example XXI, tert-Butyl N-[(4S,5E,7S)-7-benzyl-8-[(2R)—2-{[(1S)—4-{[(tert-butoxy)carbonyl]amino}-1-[(1-hydroxy-2,2,6,6-tetramethylpiperidin-4-yl)carbamoyl]butyl]carbamoyl}pyrrolidin-1-yl]-2-methyl-8-oxooct-5-en-4-yl]carbamate]	257 nM
